For series [1], the target named is T1, Poly [ADP-ribose] polymerase tankyrase-2 (Homo sapiens, UniProt Q9H2K2).
T1 sequence (Q9H2K2 whole entry): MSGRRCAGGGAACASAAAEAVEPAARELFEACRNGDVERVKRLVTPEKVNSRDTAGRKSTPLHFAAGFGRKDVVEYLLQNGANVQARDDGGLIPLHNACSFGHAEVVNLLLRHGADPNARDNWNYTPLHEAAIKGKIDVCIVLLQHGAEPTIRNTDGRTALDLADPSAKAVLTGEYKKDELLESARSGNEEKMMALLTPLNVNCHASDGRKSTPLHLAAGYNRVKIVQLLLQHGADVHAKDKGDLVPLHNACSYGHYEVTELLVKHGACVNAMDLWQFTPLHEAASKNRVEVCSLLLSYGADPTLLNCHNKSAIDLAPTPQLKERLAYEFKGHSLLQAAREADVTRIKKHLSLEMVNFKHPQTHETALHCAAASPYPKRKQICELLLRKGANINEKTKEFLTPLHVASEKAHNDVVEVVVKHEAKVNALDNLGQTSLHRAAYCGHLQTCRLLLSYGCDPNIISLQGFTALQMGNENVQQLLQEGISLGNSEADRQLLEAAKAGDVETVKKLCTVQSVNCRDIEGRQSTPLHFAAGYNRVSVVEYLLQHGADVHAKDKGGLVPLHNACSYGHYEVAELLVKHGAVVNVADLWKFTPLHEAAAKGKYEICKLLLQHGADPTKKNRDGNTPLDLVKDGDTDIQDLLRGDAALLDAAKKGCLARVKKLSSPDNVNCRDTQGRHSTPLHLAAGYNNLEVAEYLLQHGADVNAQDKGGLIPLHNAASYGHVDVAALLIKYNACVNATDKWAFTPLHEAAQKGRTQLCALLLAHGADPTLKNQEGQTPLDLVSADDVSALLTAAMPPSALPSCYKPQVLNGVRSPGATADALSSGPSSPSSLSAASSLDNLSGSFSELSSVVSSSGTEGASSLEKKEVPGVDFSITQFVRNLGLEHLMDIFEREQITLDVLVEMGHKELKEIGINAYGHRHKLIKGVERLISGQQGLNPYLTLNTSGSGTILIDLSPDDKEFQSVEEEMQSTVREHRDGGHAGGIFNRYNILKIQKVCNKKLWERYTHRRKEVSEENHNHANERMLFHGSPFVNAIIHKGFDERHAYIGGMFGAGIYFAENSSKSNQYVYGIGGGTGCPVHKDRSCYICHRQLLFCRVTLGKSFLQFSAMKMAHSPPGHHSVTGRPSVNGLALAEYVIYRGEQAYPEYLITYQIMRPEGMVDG
Description: Inhibition of recombinant human N-terminal TEV cleavage site-fused/FLAG-poly his-tagged TNKS2 SAM-PARP domain (613 to 1166 residues) expressed in Escherichia coli assessed as reduction in auto-PARylation preincubated for 10 mins followed by biotinylated-NAD+ addition and measured after 45 mins by ELISA

The nature of series [2]: Cmax in ICR mouse at 50 mg/kg, ip. The class given is ADME, organism-based. Details: dose 50 mg/kg, route intraperitoneal. The conditions noted are these: in vivo.
For a further series, the system named is COLO 320DM. Description: Antitumor activity against human COLO320DM cells xenografted in mouse assessed as tumor growth inhibition at 150 mg/kg, ip administered twice daily for 11 days relative to control. The class given is functional. The note with it: 264 h, read-out: TGI.
Series [3] in a line: Toxicity in mouse xenografted with human COLO320DM cells assessed as body weight loss at 150 mg/kg, ip administered twice daily for 11 days. The class given is organism-based. The note with it: in vivo, 264 h.
Series [4] addresses 5-hydroxytryptamine receptor 1B (Homo sapiens) (UniProt P28222). Nature of the series: Displacement of [3H]GR125743 from full-length recombinant human 5HT1B receptor expressed in human Chem1 cells at 10 uM measured after 90 mins by scintillation counting method relative to control. The class given is cell-based.
Series [5] concerns the target Acetylcholinesterase (Homo sapiens) (UniProt P22303). Nature of the series: Inhibition of human recombinant full-length ACES expressed in HEK293 cells at 10 uM using acetylthiocholine iodide as substrate preincubated for 15 mins followed by substrate addition and measured after 20 mins by DTNB reagent based spectrophotometric method relative to control.
Series [6] addresses Alpha-1A adrenergic receptor (Rattus norvegicus) (UniProt P43140). Nature of the series: Displacement of [3H]prazosin from alpha1A receptor in Wistar rat submaxillary gland membranes at 10 uM measured after 60 mins by scintillation counting method relative to control. The class given is cell membranes.
Series [7] deals with Beta-1 adrenergic receptor (Homo sapiens) (UniProt P08588). Nature of the series: Displacement of [125I]cyanopindolol from full-length recombinant human beta1 receptor expressed in CHOK1 cells at 10 uM measured after 120 mins by scintillation counting method relative to control. The class given is cell-based.
Sequence of Beta-1 adrenergic receptor (Homo sapiens) (P08588 whole entry, looked up): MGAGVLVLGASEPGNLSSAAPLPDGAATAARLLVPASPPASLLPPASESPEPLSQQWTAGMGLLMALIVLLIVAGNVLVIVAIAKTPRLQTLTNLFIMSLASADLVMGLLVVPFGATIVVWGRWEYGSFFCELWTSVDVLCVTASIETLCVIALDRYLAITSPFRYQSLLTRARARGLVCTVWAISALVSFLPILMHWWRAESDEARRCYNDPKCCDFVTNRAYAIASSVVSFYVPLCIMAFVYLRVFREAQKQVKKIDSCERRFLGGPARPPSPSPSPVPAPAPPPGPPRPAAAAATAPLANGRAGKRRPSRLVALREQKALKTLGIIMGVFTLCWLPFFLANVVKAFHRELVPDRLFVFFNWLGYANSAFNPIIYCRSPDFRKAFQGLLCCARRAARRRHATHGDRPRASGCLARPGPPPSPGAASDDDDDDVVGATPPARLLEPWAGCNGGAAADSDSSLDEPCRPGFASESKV
In series [8] the target is Cannabinoid receptor 1 (Homo sapiens) (UniProt P21554). Nature of the series: Displacement of [3H]SR141716A from full-length recombinant human CB1 receptor expressed in human Chem1 cells at 10 uM measured after 60 mins by scintillation counting method relative to control. The class given is cell-based.
Sequence of Cannabinoid receptor 1 (Homo sapiens) (P21554 whole entry): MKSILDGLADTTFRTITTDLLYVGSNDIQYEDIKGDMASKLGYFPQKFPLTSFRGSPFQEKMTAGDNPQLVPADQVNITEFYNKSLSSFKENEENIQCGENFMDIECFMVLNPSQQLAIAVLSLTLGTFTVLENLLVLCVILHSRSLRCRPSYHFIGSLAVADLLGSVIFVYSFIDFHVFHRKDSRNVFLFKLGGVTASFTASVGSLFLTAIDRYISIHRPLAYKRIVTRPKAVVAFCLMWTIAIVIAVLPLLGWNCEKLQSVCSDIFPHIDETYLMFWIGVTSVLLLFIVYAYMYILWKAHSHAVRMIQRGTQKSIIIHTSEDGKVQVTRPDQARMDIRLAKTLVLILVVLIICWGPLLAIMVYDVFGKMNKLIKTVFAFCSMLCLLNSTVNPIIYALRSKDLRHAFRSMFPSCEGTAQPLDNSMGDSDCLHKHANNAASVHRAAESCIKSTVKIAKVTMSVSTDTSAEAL
In series [9] the target is Cannabinoid receptor 2 (Homo sapiens) (UniProt P34972). Description: Displacement of [3H]WIN55212-2 from full-length recombinant human CB2 receptor expressed in human Chem1 cells at 10 uM measured after 90 mins by scintillation counting method relative to control. The class given is cell-based.
Sequence of Cannabinoid receptor 2 (Homo sapiens) (P34972 whole entry): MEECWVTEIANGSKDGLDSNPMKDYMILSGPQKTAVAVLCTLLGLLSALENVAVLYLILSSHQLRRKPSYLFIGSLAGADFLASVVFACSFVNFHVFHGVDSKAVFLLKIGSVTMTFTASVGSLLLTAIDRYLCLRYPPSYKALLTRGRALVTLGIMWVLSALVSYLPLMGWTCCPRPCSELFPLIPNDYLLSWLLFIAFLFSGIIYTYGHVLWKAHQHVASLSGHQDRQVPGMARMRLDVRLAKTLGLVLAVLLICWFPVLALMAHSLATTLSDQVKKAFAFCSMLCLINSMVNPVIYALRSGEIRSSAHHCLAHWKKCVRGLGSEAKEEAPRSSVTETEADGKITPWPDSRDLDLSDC
Series [10] addresses Prostaglandin G/H synthase 1 (Homo sapiens) (UniProt P23219). Description: Inhibition of human recombinant COX1 expressed in baculovirus infected Sf9 cells at 10 uM using arachidonic acid as substrate preincubated for 15 mins followed by substrate addition and measured after 3 mins by ampliflu red dye-based spectrofluorimetric method relative to control.
Series [11] addresses D(2) dopamine receptor (Homo sapiens) (UniProt P14416). Nature of the series: Displacement of [3H]spiperone from full-length recombinant human D2S receptor expressed in CHO cells at 10 uM measured after 120 mins by scintillation counting method relative to control. The class given is cell-based.
Series [12] has as its target Histamine H1 receptor (Homo sapiens) (UniProt P35367). Nature of the series: Displacement of [3H]pyrilamine from full-length recombinant human H1 receptor expressed in CHOK1 cells at 10 uM measured after 180 mins by scintillation counting method relative to control. The class given is cell-based.
A further series addresses hERG (KCNH2) (Homo sapiens, UniProt Q12809). Nature of the series: Displacement of [3H]dofetilide from full-length recombinant human ERG receptor expressed in HEK293 cells at 10 uM measured after 60 mins by scintillation counting method relative to control. The class given is cell-based. The conditions noted are these: HEK293 cells expressing recombinant human ERG, probe [3H]dofetilide.

The target in series [13] is Muscarinic acetylcholine receptor M2 (Homo sapiens) (UniProt P08172). Nature of the series: Displacement of [3H]N-Methylscopolamine from full-length recombinant human M2 receptor expressed in CHOK1 cells at 10 uM measured after 120 mins by scintillation counting method relative to control. The class given is cell-based.
Sequence of Muscarinic acetylcholine receptor M2 (Homo sapiens) (P08172 whole entry): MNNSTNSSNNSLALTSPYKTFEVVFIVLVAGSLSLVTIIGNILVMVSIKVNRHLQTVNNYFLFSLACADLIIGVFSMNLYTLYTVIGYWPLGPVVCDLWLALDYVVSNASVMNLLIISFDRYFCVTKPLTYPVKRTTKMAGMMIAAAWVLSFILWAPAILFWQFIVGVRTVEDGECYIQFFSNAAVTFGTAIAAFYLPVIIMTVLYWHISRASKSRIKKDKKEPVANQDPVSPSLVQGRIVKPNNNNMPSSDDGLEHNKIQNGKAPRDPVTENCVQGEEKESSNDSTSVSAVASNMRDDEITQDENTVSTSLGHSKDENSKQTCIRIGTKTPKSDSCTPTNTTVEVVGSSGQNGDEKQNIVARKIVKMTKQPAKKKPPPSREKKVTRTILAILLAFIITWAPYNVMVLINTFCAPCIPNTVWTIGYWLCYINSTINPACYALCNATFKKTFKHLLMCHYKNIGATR
Series [14] has as its target Mu-type opioid receptor (Homo sapiens) (UniProt P35372). Nature of the series: Displacement of [3H]diprenorphine from full-length recombinant human MOR expressed in CHOK1 cells at 10 uM measured after 60 mins by scintillation counting method relative to control. The class given is cell-based.
The target in series [15] is Sodium-dependent noradrenaline transporter (Homo sapiens) (UniProt P23975). Description: Displacement of [125I]RTI-55 from full-length recombinant human NET receptor expressed in MDCK cells at 10 uM measured after 3 hrs by scintillation counting method relative to control. The class given is cell-based.
Series [16] addresses 3',5'-cyclic-AMP phosphodiesterase 4D (Homo sapiens) (UniProt Q08499). Description: Inhibition of full-length recombinant human PDE4D2 expressed in Sf9 insect cells at 10 uM using FAM-cAMP as substrate preincubated for 15 mins followed by substrate addition and measured after 15 mins by spectrofluorimetric method relative to control.

These results are taken from ChEMBL document CHEMBL4387706, “Discovery of Novel Spiroindoline Derivatives as Selective Tankyrase Inhibitors” (J Med Chem, 2019).

Molecules are shown by their SMILES. A value given as a limit tells only on which side of the number the result lay.

Sequence of Acetylcholinesterase (Homo sapiens) (P22303 whole entry): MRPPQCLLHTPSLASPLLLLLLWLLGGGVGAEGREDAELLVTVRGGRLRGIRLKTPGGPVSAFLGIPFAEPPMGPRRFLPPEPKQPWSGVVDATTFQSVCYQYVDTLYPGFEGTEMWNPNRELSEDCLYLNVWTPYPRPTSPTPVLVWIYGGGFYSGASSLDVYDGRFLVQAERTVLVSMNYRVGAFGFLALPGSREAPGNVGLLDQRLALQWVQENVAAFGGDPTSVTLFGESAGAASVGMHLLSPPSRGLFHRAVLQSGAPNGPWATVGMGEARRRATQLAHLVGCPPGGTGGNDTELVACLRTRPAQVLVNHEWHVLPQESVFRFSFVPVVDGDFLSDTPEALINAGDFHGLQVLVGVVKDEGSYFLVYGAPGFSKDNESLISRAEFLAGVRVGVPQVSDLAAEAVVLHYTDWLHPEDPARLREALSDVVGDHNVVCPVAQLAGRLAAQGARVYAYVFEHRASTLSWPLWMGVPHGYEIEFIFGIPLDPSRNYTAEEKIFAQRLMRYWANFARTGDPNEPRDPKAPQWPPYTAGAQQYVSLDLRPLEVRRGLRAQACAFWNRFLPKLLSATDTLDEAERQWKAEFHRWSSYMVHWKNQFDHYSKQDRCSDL
Sequence of Prostaglandin G/H synthase 1 (Homo sapiens) (P23219 whole entry): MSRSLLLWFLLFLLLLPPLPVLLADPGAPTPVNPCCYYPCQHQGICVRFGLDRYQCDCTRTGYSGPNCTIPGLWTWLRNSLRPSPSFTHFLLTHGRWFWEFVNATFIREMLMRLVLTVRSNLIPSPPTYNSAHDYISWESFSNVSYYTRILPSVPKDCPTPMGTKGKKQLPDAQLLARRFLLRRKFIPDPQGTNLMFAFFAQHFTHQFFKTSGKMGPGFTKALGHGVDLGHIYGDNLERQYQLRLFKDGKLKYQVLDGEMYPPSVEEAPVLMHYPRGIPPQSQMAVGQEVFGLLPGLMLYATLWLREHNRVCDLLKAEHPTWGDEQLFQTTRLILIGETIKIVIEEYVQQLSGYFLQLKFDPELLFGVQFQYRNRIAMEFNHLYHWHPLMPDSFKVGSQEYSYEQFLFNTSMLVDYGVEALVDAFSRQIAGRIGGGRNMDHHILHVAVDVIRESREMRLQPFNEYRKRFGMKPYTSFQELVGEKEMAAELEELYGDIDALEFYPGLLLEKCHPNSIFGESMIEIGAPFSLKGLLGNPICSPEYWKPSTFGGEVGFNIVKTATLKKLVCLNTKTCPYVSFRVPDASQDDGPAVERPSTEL
Sequence of 3',5'-cyclic-AMP phosphodiesterase 4D (Homo sapiens) (Q08499 whole entry): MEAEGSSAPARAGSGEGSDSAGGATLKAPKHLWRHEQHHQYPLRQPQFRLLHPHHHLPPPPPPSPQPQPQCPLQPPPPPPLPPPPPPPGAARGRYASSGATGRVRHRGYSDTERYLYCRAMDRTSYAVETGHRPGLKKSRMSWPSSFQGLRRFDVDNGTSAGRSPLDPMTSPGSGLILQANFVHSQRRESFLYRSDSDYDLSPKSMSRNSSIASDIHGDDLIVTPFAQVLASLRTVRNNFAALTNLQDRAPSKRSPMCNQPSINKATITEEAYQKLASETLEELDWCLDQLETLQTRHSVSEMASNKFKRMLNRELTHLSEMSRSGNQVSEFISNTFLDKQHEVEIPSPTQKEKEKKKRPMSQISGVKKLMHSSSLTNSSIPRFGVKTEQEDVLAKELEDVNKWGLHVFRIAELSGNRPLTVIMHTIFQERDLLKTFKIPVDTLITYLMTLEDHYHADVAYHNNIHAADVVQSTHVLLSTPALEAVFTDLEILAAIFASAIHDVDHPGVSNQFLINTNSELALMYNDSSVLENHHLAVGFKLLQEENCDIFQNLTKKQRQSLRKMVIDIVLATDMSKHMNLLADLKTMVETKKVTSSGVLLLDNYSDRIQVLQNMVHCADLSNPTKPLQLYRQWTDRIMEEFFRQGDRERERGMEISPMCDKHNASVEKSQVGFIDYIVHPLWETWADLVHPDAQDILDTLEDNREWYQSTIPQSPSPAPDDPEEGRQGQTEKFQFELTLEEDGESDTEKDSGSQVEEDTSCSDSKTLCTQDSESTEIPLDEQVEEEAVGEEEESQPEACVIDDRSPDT
Sequence of Alpha-1A adrenergic receptor (Rattus norvegicus) (P43140 whole entry): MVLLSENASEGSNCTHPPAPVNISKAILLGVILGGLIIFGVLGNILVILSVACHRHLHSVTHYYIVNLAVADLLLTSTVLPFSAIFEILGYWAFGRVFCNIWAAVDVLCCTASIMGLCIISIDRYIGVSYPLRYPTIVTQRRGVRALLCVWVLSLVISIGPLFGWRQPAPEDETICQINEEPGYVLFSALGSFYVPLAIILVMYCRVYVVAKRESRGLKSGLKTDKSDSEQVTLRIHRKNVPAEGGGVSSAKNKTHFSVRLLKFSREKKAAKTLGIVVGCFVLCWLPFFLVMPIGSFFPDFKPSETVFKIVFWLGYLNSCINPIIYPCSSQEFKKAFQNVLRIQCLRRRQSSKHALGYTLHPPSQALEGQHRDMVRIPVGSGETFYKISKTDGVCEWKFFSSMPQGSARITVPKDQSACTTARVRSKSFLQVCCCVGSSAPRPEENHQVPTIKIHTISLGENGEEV
Sequence of 5-hydroxytryptamine receptor 1B (Homo sapiens) (P28222 whole entry): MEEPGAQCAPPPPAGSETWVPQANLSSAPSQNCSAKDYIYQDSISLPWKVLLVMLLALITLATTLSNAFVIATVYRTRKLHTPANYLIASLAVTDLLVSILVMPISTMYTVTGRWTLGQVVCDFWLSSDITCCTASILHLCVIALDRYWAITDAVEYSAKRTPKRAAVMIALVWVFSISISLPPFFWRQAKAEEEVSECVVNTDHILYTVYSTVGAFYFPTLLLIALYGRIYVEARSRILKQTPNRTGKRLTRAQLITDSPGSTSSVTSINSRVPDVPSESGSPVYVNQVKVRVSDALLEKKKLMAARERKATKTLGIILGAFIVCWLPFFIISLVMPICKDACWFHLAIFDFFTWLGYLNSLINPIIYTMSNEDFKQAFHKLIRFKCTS

For `COc1ccccc1N1CCN(c2nc3c(c(=O)[nH]2)CCCC3)CC1`, 19.4 nM corresponded to half-maximal inhibition in [1] (IC50).

Regarding `O=c1[nH]c(N2CCC3(CC2)CN(CCO)c2cc(F)cc(F)c23)nc2c1CCCC2`, in series [2], the Cmax is 199 µM. Moreover, the inhibition in vivo at 150 mg/kg in the series with COLO 320DM worked out at 47.2%. The Activity result in [3] was “Non-Toxic”. The inhibition in [4], in series [5], in series [6], in series [7], in [8] and in series [9] was greater than 20% each time. For the same compound, the inhibition in series [10], in series [11], in [12], in series [13], in series [14] and in series [15] was greater than 20% in each case. In addition, the inhibition in series [16] is greater than 20%. In addition, on hERG (KCNH2), the inhibition at 1 h, 10 µM is greater than 20%.
